Reference: US20150259371A1, “METHODS AND COMPOUNDS FOR INHIBITING GLYCOSYLTRANSFERASES” (SIMON FRASER UNIVERSITY, priority 2010, published 2015)

molecular target: T1, OGA (Homo sapiens, UniProt O60502); experiment: OGA kinetics, Michaelis-Menten hydrolysis of pMP glycosides; format: biochemical; details: 37° C.
T1 construct: made in house
T1 sequence (O60502 1-916): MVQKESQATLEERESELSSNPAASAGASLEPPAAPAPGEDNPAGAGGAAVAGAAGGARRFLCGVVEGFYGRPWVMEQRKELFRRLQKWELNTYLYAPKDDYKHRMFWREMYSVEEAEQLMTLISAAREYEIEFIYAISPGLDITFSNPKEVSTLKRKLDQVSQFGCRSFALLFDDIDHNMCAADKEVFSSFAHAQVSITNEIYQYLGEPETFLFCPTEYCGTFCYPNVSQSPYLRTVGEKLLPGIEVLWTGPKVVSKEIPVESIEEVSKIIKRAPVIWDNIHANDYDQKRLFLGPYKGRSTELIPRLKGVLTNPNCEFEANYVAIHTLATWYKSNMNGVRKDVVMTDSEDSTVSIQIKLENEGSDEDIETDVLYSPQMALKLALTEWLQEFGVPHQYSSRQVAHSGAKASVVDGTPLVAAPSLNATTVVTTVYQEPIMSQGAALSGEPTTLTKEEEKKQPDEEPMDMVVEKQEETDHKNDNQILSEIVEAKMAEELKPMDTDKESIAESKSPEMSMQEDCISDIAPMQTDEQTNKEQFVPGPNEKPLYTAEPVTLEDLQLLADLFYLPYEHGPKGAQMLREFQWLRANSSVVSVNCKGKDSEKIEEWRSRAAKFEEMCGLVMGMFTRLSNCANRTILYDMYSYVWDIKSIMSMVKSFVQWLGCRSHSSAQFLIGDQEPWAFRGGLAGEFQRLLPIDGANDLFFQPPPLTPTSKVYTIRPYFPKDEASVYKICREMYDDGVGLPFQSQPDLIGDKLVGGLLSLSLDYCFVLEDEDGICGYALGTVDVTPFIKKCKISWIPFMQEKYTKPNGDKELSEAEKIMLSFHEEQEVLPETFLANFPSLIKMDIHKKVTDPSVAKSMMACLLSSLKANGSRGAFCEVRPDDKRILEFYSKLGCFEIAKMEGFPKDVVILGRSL
Protocol: OGA kinetics: Synthesis and characterization of para-methoxyphenyl-5SGlcNAc is described in Example II. Kinetics were performed at 37° C. in PBS, pH 7.4 in a total volume of […]. Substrate concentrations of 25 μM to 1.5 mM were used for pMP-GlcNAc and 25 to 800 μM for pMP-5SGlcNAc. OGA (which was over-expressed and purified as described in Ref. ^42) was used at a concentration of 1 μM for pMP-GlcNAc and 3.6 μM for pMP-5SGlcNAc. Rates were monitored at a wavelength of 296 nm over the course of 10-20 min. Data were fit to the Michaelis-Menten equation in GRAFIT^41 and the kcat and KM values determined.

| Structure (SMILES) | kcat for OGA hydrolysis | Km |
| --- | --- | --- |
| COc1ccc(O[C@H]2S[C@H](CO)[C@@H](O)[C@H](O)[C@H]2NC(C)=O)cc1 [Compound 14, para-Methoxyphenyl 2-acetamido-2-deoxy-5-thio-α-D-glucopyranoside] | 0.28 nmol s^−1 me |  |
| COc1ccc(O[C@@H]2O[C@H](CO)[C@@H](O)[C@H](O)[C@H]2NC(C)=O)cc1 [pMP-GlcNAc, para-methoxyphenyl-GlcNAc, reference compound] | 14.3 nmol/s/mg | 350 µM |

same assay, conditions: human OGA

| Structure (SMILES) | Vmax/E0KM for OGA hydrolysis | fold less efficiently processed by OGA than pMP-GlcNAc |
| --- | --- | --- |
| COc1ccc(O[C@H]2S[C@H](CO)[C@@H](O)[C@H](O)[C@H]2NC(C)=O)cc1 [Compound 14, para-Methoxyphenyl 2-acetamido-2-deoxy-5-thio-α-D-glucopyranoside] | 8.1 μmol s^−1 mg^−1 M^−1 | 5 fold |
| COc1ccc(O[C@@H]2O[C@H](CO)[C@@H](O)[C@H](O)[C@H]2NC(C)=O)cc1 [pMP-GlcNAc, para-methoxyphenyl-GlcNAc, reference compound] | 40.7 μmol s^−1 mg^−1 M^−1 |  |

tested on: O-GlcNAc levels in COS-7 cells; experiment: Western blot of O-GlcNAc levels (CTD110.6) in treated COS-7 cells; format: cell-based, African green monkey; details: 50 μM, 24 h
Protocol: Cell culture: Cells were grown in an incubator at 37° C. and 5% CO2 atmosphere. Media and serum were purchased from Invitrogen. COS-7 cells were cultured in Dulbecco's modified Eagle's medium (DMEM) with 5% fetal bovine serum (FBS), and were typically 80-100% confluent prior to experimentation. HepG2, SK-N-SH, and EMEG32^−/− cells were cultured in Dulbecco's modified Eagle's medium (DMEM) with 5% fetal bovine serum (FBS), CHO cells in DMEMF-12 with 5% FBS and PC12 cells in DMEM with 5% FBS and 5% horse serum. Prior to experimentation, PC12 cells were plated at a density of 3-4×10^5 cells10 cm plate, which had been pre-treated with 5 μgcm^2 rat tail collagen (BD Biosciences). Cells were differentiated in DMEM containing 1% horse serum, in the presence of 2.5S mouse nerve growth factor (Chemicon) at a final concentration of 25 ng mL^−1, for 4-5 days prior to treatment. Other cell lines were 80-100% confluent prior to treatment. Following treatment with (Ac-)5SGlcNAc, using various conditions, cells were washed gently with PBS, lysed in SDS loading buffer and boiled for 10 minutes. Mouse hybridoma cells (obtained from the Developmental Studies Hybridoma Bank; antibody E7 for (:1-tubulin) were cultured in RPMI40 with 10% FBS. Prior to treatment with Ac-5SGlcNAc, hybridoma cells were cultured for 2 days in RPMI40 with 5% FBS, and during treatment in RPMI40 with no serum. Cells were collected, centrifuged (800 x g, 5 min) and the supernatant removed. Cells were washed with PBS, centrifuged, the pellet resuspended in SDS loading buffer and boiled. The supernatant after centrifugation, which contained the IgG antibody produced by the cells, was used for immunoprecipitation (see below for details).
Westernlectin blots: Samples were run on 10% SDS polyacrylamide gels and transferred onto nitrocellulose membranes (Biorad). Membranes were blocked for 1 h in PBS containing 0.1% Tween-20 (PBS-T) containing 1% (unless otherwise stated) bovine serum albumin (BSA), and probed with the appropriate primary antibody or lectin in 1% BSA in PBS-T overnight at 4° C. Blots were washed for 1 hr with PBS-T, and blocked for a further 30 min with 1% BSA in PBS-T at room temperature. They were then probed with the appropriate horseradish peroxidise (HRP)-conjugated secondary antibodyprobe in 1% BSA in PBS-T at room temperature for 1 h, followed by washing in PBS-T for 1 h. Blots were developed with SuperSignal West Pico Chemiluminescent Substrate (Pierce) and exposed to CL-XPosure film (Pierce). Densitometry was performed using ImageQuant 5.2 (Molecular Dynamics), and fits to the data were made using GRAFIT^41.
Antibodieslectins: O-GlcNAc levels were assessed primarily using CTD110.6 (Covance), but RL2 (Abcam) and HGAC85 (Abcam) were also tested. Actin was probed using JLA20 (Developmental Studies Hybridoma Bank). OGA levels were assessed using a polyclonal anti-OGA antibody which was a kind gift from Dr. Gerald Hart and OGT levels using H-300 (Santa Cruz Biotechnology). nup62 was probed using mAb 414 (Covance). Secondary antibodies employed (HRP-conjugated goat anti-mouse IgM, goat anti-mouse IgG, goat anti-chicken IgY and goat anti-rabbit IgG) were obtained from Santa Cruz Biotechnology. Biotinylated-ConA, PHA-L, SNA and MAA were purchased from EY Laboratories, and biotinylated-GNA from Vector Laboratories. HRP-conjugated streptavidin (Pierce) was used as a probe for the biotinylated lectins.
Analogues (9, 10, 17-41) were tested in COS-7 cells, dosed at a final concentration of 50 μM in DMSO for 24 h. Following treatment, cells were washed with PBS, harvested into SDS-PAGE loading buffer and analyzed by western blot using standard procedures; blots were probed with the anti-O-GlcNAc antibody (CTD 110.6).

| Structure (SMILES) | effect on O-GlcNAc levels at single dose | extent of decrease of O-GlcNAc levels relative to parent compound 9 |
| --- | --- | --- |
| O=C(Cc1cccc2ccccc12)NC1C(O)SC(CO)C(O)C1O [Compound 36, N-(1-Naphthylacetyl)-α-D-5-thio-glucosamine] | decreased O-GlcNAc levels in cells |  |
| CCCCCC(=O)NC1C(OC(C)=O)SC(COC(C)=O)C(OC(C)=O)C1OC(C)=O [Compound 27, N-hexonoyl-1,3,4,6-tetra-O-acetyl-a-D-5-thio-glucosamine] | decreased O-GlcNAc levels in cells | comparable extent to the parent compound |
| CC(=O)OCC1SC(OC(C)=O)C(NC(=O)CC2CCCCC2)C(OC(C)=O)C1OC(C)=O [Compound 33, N-(2-Cyclohexylacetyl)-1,3,4,6-tetra-O-acetyl-a-D-5-thio-glucosamine] | decreased O-GlcNAc levels in cells |  |
| CC(=O)OC[C@H]1S[C@H](OC(C)=O)[C@H](N)[C@@H](OC(C)=O)[C@@H]1OC(C)=O.O=S(=O)(O)O [Compound 31′, 1,3,4,6-tetra-O-acetyl-a-D-5-thio-glucosamine sulphuric acid salt] | decreased O-GlcNAc levels in cells |  |
| CC(=O)OCC1SC(OC(C)=O)C(NC(=O)CC(C)C)C(OC(C)=O)C1OC(C)=O (stereo not drawn) [Compound 25] | decreased O-GlcNAc levels in cells |  |
| CCCC(=O)NC1C(OC(C)=O)SC(COC(C)=O)C(OC(C)=O)C1OC(C)=O [Compound 19, N-(n-butyryl)-1,3,4,6-tetra-O-acetyl-a-D-5-thio-glucosamine] | decreased O-GlcNAc levels in cells |  |
| CC(=O)OCC1SC(OC(C)=O)C(NC(=O)Cc2cccc3ccccc23)C(OC(C)=O)C1OC(C)=O [Compound 35, N-(1-naphthylacetyl)-1,3,4,6-tetra-O-acetyl-α-D-5-thio-glucosamine] | decreased O-GlcNAc levels in cells |  |
| CCC[C@H](C)C(=O)N[C@@H]1[C@@H](O)[C@H](O)[C@@H](CO)S[C@@H]1O [Compound 38, N-[(S)-2-methylvaleryl]-a-D-5-thio-glucosamine] | decreased O-GlcNAc levels in cells | comparable extent to the parent compound |
| CCC(=O)NC1C(OC(C)=O)SC(COC(C)=O)C(OC(C)=O)C1OC(C)=O [Compound 17, N-proprionyl-1,3,4,6-tetra-O-acetyl-α-D-5-thio-glucosamine] | decreased O-GlcNAc levels in cells |  |
| CC[C@H](C)CC(=O)NC1C(OC(C)=O)SC(COC(C)=O)C(OC(C)=O)C1OC(C)=O (stereo partly drawn) [Compound 37, N-[(S)-methylvaleryl]-1,3,4,6-tetra-O-acetyl-α-D-5-thio-glucosamine] | decreased O-GlcNAc levels in cells | comparable extent to the parent compound |
| CC(=O)OCC1SC(OC(C)=O)C(NC(=O)C(C)C)C(OC(C)=O)C1OC(C)=O [Compound 21, N-(i-butyryl)-1,3,4,6-tetra-O-acetyl-a-D-5-thio-glucosamine] | decreased O-GlcNAc levels in cells |  |
| CCCCC(=O)NC1C(OC(C)=O)SC(COC(C)=O)C(OC(C)=O)C1OC(C)=O [Compound 23, N-(n-valeryl)-1,3,4,6-tetra-O-acetyl-α-D-5-thio-glucosamine] | decreased O-GlcNAc levels in cells |  |
| O=C(CC1CCCCC1)NC1C(O)SC(CO)C(O)C1O [Compound 34, N-(2-cyclohexylacetyl)-a-D-5-thio-glucosamine] | decreased O-GlcNAc levels in cells |  |

same assay, conditions: 24 hours

| Structure (SMILES) | effect on O-GlcNAc levels, dose response |
| --- | --- |
| CC(=O)NC1C(O)SC(CO)C(O)C1O [Compound 10, N-acetyl-α-D-5-thio-glucosamine] | decreased O-GlcNAc levels in a dose-dependent fashion |

same assay, conditions: Chlorocebus sabaeus, 24 h, densitometry of western blot, read-out: EC50 for reduction of O-GlcNAc levels

| Structure (SMILES) | EC50 |
| --- | --- |
| CC(=O)NC1C(O)SC(CO)C(O)C1O [Compound 10, N-acetyl-α-D-5-thio-glucosamine] | 700 µM |
